# Reference: US8592172B2, “Bioluminescent assays using cyanobenzothiazole compounds” (Promega Corporation, priority 2010, dated 2013)
# Experiments:
# human liver microsomes = assay: Utilization of compound 3165 by human microsomes; assay type: biochemical; settings: 50 μM compound 3165, 0.2 mg/mL microsomes, 2 hours at 37° C.
# Description: (§1) The ability of endogenously expressed UGT isozymes to utilize compounds 3138 and 3165 as substrates was determined in a similar manner to the assays with recombinant microsomes (Example 1). […] Tissue microsomes were obtained from Xenotech LLC or BD Gentest. Addition of P450-Glo LDR plus cysteine and data analysis was performed in the same manner as for the recombinant Supersome panel screen (Example 1 above).
# UGT 1A4 = biological target: T1, UGT 1A4 (Homo sapiens, UniProt P22310); assay: Recombinant UGT panel, substrate utilization; assay type: biochemical; settings: 2 hour incubation at 37° C., recombinant Supersomes
# T1 construct: purchased BD Gentest; host or cells: insect cells (microsomes)
# T1 sequence (P22310 29-534): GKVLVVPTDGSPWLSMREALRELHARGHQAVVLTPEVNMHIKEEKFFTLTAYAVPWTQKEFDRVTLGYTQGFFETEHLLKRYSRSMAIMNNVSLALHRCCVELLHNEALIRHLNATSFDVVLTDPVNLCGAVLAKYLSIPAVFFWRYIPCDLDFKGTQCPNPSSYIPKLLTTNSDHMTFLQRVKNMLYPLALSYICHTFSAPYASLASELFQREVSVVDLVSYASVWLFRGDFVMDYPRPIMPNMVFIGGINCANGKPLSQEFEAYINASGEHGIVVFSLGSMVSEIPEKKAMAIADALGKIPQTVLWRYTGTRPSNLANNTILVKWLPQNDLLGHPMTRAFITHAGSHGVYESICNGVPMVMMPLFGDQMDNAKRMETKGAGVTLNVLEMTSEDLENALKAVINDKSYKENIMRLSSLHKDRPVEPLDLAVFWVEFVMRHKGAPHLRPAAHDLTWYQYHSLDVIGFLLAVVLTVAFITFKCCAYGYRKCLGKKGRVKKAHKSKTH
# Description: (§2) During this incubation, the cysteine reacts with the cyanobenzathiozole substrate to yield a D-luciferin derivative. […] Therefore, activity of the UGT enzyme can be measured by analyzing the difference (lower or no output) in relative light units (RLU) of a sample in which glucuronidation occurs compared to a sample that was run under the same conditions with no added UDPGA cofactor.
# (§3) In this example, a series of 12 recombinant UGTs expressed in insect microsomes (Supersomes™, BD Gentest™), as well as the control microsomes not expressing the UGT enzyme, were incubated with compound 3138, compound 3478, or compound 3165 as substrates, with or without the UDPGA co-factor.
# (§4) After addition of a luciferin detection reagent (LDR) containing D-cysteine, both the substrate and the product were converted to D-luciferins (compound 3478 is already a luciferin derivative before addition of the LDR).
# (§5) Reactions were assembled in a white, 96-well plate. Each well contained 20 μL of reaction mixture comprised of 100 mM TES, pH 7.5, 16 mM MgCl2, 50 μg/mL alamethicin (Sigma), 60 μM compound 3138 or compound 3478, and 0.4 mg/mL of control or recombinant UGT membranes. The reactions were initiated by addition of 20 μL of water or 8 mM triammonium UDPGA (Sigma) to each well. The plate was mixed, sealed, and incubated in a 37° C. water bath for 2 hours. After the incubation, 40 μL P450-Glo LDR (Promega) with 20 mM D-cysteine-HCl.H2O (Sigma) was added to each well, the plate was mixed and allowed to incubate at room temperature for 20 minutes. After the incubation was completed, the plate was read on a Veritas™ luminometer (Turner BioSystems, Inc.; Sunnyvale, Calif.).
# (§6) For each isozyme, the bioluminescence from the replicates containing UDPGA were subtracted from the average bioluminescence of the replicates without UDPGA. The average Δ RLU value obtained and the standard deviation of the replicates were then divided by the average bioluminescence for samples without UDPGA to obtain the % utilization for each isozyme. The % utilization obtained from the control microsomes was then subtracted from each isozyme to give the background corrected utilization data for those isozymes.
# UGT 1A9 = biological target: T2, UGT 1A9 (Homo sapiens, UniProt O60656); assay: Recombinant UGT panel, substrate utilization; assay type: biochemical; settings: 2 hour incubation at 37° C., recombinant Supersomes, background corrected
# T2 construct: purchased BD Gentest; host or cells: insect cells (microsomes)
# T2 sequence (O60656 26-530): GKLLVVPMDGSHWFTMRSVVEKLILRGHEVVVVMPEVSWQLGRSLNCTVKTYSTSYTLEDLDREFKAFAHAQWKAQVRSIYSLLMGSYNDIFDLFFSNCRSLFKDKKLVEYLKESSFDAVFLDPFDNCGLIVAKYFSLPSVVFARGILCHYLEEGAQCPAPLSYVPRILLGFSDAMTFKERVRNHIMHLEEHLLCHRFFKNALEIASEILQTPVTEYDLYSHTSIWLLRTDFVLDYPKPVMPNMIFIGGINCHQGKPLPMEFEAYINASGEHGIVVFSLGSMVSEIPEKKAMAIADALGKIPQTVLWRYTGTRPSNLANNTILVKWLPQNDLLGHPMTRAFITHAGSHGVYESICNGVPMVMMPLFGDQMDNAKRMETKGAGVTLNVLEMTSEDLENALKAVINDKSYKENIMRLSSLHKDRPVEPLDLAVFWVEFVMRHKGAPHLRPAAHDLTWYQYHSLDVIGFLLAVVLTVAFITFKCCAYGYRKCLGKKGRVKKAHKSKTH
# Description: as §2, §3, §4, §5, §6
# rat liver microsomes = assay: Utilization of compound 3165 by rat liver microsomes; assay type: biochemical; settings: 50 μM compound 3165, 0.2 mg/mL microsomes, 2 hours at 37° C.
# Description: as §1
# mouse liver microsomes = assay: Utilization of compound 3165 by mouse liver microsomes; assay type: biochemical; settings: 50 μM compound 3165, 0.2 mg/mL microsomes, 2 hours at 37° C.
# Description: as §1
# UGT isozymes = UGT isozymes currently reported in the literature; cited from earlier work
# UGT 1A1 = biological target: T3, UGT 1A1 (Homo sapiens, UniProt P22309); assay: Inhibition of recombinant UGT 1A1 Supersomes, compound 3138 as substrate; assay type: biochemical; settings: 20 μM compound 3138, 0.1 mg/mL Supersomes, 90 minutes at 37° C.
# T3 construct: purchased BD Gentest; host or cells: insect cells (microsomes)
# T3 sequence (P22309 26-533): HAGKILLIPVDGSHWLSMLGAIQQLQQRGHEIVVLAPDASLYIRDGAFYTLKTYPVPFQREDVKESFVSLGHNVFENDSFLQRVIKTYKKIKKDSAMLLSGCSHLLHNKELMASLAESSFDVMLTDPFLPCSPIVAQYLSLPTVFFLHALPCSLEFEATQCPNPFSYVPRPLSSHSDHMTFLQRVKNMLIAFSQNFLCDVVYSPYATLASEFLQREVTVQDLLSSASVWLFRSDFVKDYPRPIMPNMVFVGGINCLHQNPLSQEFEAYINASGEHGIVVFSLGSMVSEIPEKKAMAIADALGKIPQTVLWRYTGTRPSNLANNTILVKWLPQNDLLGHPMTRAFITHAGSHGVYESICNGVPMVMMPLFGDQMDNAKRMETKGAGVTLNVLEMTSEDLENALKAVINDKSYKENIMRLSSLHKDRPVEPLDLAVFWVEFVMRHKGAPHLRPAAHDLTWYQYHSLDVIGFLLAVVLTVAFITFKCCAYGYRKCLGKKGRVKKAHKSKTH
# Description: Following the UGT enzyme reaction, an equal volume of P450-Glo Luciferin Detection Reagent (LDR) (Promega) containing 15-30 mM D-cysteine-HCl.H2O (Sigma) was added and the plate was mixed and incubated at room temperature, typically for 20-30 minutes. P450-Glo Luciferin Detection Reagent contains a luciferase reaction mixture that includes a recombinant firefly luciferase, ATP and Mg^2+.
# After 2 hours at 37° C., 10 μL of 50 mM D-cysteine-HCl.H2O diluted in 200 mM HEPES, pH 8.0 was added to each 40 μL UGT reaction. After 10 minute incubations, 50 μL P450-Glo LDR (Promega) was added to each well, and bioluminescence was measured.
# After 90 minutes at 37° C., 40 μL of P450-Glo LDR plus 20 mM D-cysteine was added to each 40 μL reaction and mixed. After 20 minutes at room temperature, bioluminescence was measured on a luminometer.
# [1] = system: UGT activity in human liver microsomes (HLM); assay: Inhibition of UGT activity in human liver microsomes, compound 3138 as substrate; assay type: biochemical; settings: 50 μM compound 3138, 0.1 mg/mL HLM, 15 minutes at 37° C.; read-out: IC50 for HLM utilization of compound 3138
# Description: To assess the ability of these compounds to inhibit UGT activity in HLM, reactions were set up as follows. […] Sulfinpyrazone, quinidine, and androsterone were used at a final concentration of 0.5 mM. 1-Naphthol, scopoletin, umbelliferne, and 7-hydroxy-4-trifluoromethyl coumarin were used at a final concentration of 1 mM. […] Valproate was used at a final concentration of 10 mM. All reactions were compared to their corresponding vehicle control sample containing either water, DMSO, or ethanol.
# [2] = system: UGT isozymes in human hepatocytes; settings: diclofenac, 15-20 minutes at 37° C.
# CYP1A2 [3] = assay: Non-lytic cell-based assay with human hepatocytes, compound 3019; settings: 100 μM omeprazole 48 hours, 3 μM compound 3019
# Description: Human cryopreserved hepatocytes (Celsis lot RTM) were thawed and seeded in hepatocyte culture medium in wells of a collagen-coated, 96-well culture plate at ˜70,000 cells per well and kept at 37° C. in standard cell culture incubator with 5% CO2. The cells were then treated for 48 hours with 100 μM omeprazole or vehicle control (0.1% dimethylsulfoxide) dissolved in hepatocytes culture medium (n═3 for each treatment, mean values and standard deviations are shown). […] 50 μl of the KH incubation buffer was then removed from each well and transferred to a well of a white, 96-well luminometer plate (Costar) where it was also combined with 50 μl of P450-Glo LDR containing 6.6 mM D-cysteine.
# CYP1A2 [4] = assay: Multiplex human hepatocyte assay, CYP1A2 detected with compound 3019; assay type: cell-based; settings: human hepatocytes, 100 μM omeprazole 48 hours
# Description: For detection of CYP3A4, the luciferin acetal derivative, Luciferin-IPA (Luc-IPA), was used with bioluminescence detected using LDR without D-cysteine.
# Human cryopreserved hepatocytes (Celsis In Vitro Technologies) were thawed and seeded in hepatocyte culture medium in wells of a collagen-coated, 96-well culture plate at ˜50,000 cells per well and kept at 37° C. in standard cell culture incubator with 5% CO2. […] The plate was then removed from the incubator. Fifty μl from each intact cell supernatant was transferred to two-set wells of a white, 96-well luminometer plate (Costar). To one set of wells, 50 μl of LDR with 4 mM D-cysteine was added, while 50 μl of LDR without D-cysteine was added to the other set.
smiles,measurement,setting,value
N#Cc1nc2ccc(NCc3cccc(N)c3)cc2s1 [Compound 3165],utilization (activity) with human liver microsomes versus human renal or intestinal microsomes,human liver microsomes,Activity was much higher for human liver microsomes
same,utilization of substrate by UGT 1A4,UGT 1A4,only utilized by UGT 1A4
same,% utilization of substrate by UGT 1A9,UGT 1A9,to a lesser extent
same,utilization (activity) with rat liver microsomes,rat liver microsomes,Activity was also seen
same,utilization (activity) with mouse liver microsomes,mouse liver microsomes,Activity was also seen
O=C(O)Cc1ccccc1Nc1c(Cl)cccc1Cl [Diclofenac],Isozymes Modulated,UGT isozymes,Inhibits most isozymes
same,IC50,UGT 1A1,232 µM
same,IC50,[1],60 µM
same,inhibition of compound 3138 conversion in hepatocytes,[2],inhibited
COc1ccc2[nH]c([S+]([O-])Cc3ncc(C)c(OC)c3C)nc2c1 (stereo not drawn) [omeprazole],change of signal versus vehicle (CYP1A2 induction),CYP1A2 [3],significantly increased
same,induction of CYP1A2 activity,CYP1A2 [4]; compound 3019 alone (FIG. 34A),induction of CYP1A2 activity
same,induction of CYP1A2 activity,CYP1A2 [4]; compound 3019 in the presence of Luciferin-IPA (FIG. 34C),induction of CYP1A2 activity
